Experiments:
Assay type in all cases: in vivo
[1] = system: Kochia (Kochia scoparia); assay: Test A preemergence
How it was run: (§1)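 Preemergence directed soil spray on seeded pots, or postemergence application to plants 2–10 cm, one- to two-leaf. Solvent mixture non-phytotoxic, with surfactant. Scored ~10 d later, visually, 0–100 vs untreated.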

[2] = system: barnyardgrass (Echinochloa crus-galli); assay: Test A preemergence
How it was run: as §1

[3] = system: giant foxtail (Setaria faberii); assay: Test A preemergence
How it was run: as §1

[4] = system: pigweed (Amaranthus retroflexus); assay: Test A preemergence; conditions: preemergence
[5] = system: ragweed (common ragweed, Ambrosia elatior); assay: Test A preemergence; conditions: preemergence
How it was run: as §1

[6] = system: ryegrass, Italian (Italian ryegrass, Lolium multiflorum); assay: Test A preemergence; conditions: preemergence
How it was run: as §1

[7] = system: Galium (catchweed bedstraw, Galium aparine); assay: Test A postemergence; conditions: postemergence, 0 to 100 scale (0 no effect, 100 complete control)
How it was run: as §1

[8] = system: Kochia (Kochia scoparia); assay: Test A postemergence; conditions: postemergence, 0 to 100 scale (0 no effect, 100 complete control)
How it was run: as §1

[9] = system: barnyardgrass (Echinochloa crus-galli); assay: Test A postemergence; conditions: postemergence, 0 to 100 scale (0 no effect, 100 complete control)
How it was run: as §1

[10] = system: blackgrass (Alopecurus myosuroides); assay: Test A postemergence; conditions: postemergence, 0 to 100 scale (0 no effect, 100 complete control)
How it was run: as §1

[11] = system: corn (Zea mays); assay: Test A postemergence; conditions: postemergence, 0 to 100 scale (0 no effect, 100 complete control)
How it was run: as §1

[12] = system: giant foxtail (Setaria faberii); assay: Test A postemergence; conditions: postemergence, 0 to 100 scale (0 no effect, 100 complete control)
How it was run: as §1

[13] = system: pigweed (Amaranthus retroflexus); assay: Test A postemergence; conditions: postemergence, 0 to 100 scale (0 no effect, 100 complete control)
How it was run: as §1

[14] = system: ragweed (common ragweed, Ambrosia elatior); assay: Test A postemergence; conditions: postemergence, 0 to 100 scale (0 no effect, 100 complete control)
How it was run: as §1

[15] = system: ryegrass, Italian (Italian ryegrass, Lolium multiflorum); assay: Test A postemergence; conditions: postemergence, 0 to 100 scale (0 no effect, 100 complete control)
How it was run: as §1

[16] = system: wheat (Triticum aestivum); assay: Test A postemergence; conditions: postemergence, 0 to 100 scale (0 no effect, 100 complete control)
How it was run: as §1

[17] = system: barnyardgrass (Echinochloa crus-galli); assay: Test B flooded paddy test; conditions: Flood, 0 to 100 scale where 0 is no effect and 100 is complete control, 13 to 15 d
How it was run: (§2)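 Plants at 2-leaf stage flooded to 3 cm above soil, with compounds applied directly to paddy water and that depth maintained. Plants kept in greenhouse 13–15 d. Visual rating versus controls on a 0 (no effect) to 100 (complete control) scale.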

[18] = system: ducksalad (Heteranthera limosa); assay: Test B flooded paddy test; conditions: Flood, 0 to 100 scale where 0 is no effect and 100 is complete control, 13 to 15 d
How it was run: as §2

[19] = system: rice (Oryra sativa); assay: Test B flooded paddy test; conditions: Flood, 0 to 100 scale where 0 is no effect and 100 is complete control, 13 to 15 d
How it was run: as §2

[20] = system: sedge, umbrella (small-flower umbrella sedge, Cyperus difformis); assay: Test B flooded paddy test; conditions: Flood, 0 to 100 scale where 0 is no effect and 100 is complete control, 13 to 15 d
How it was run: as §2

[21] = 125 g ai/ha, Preemergence, visual injury after approximately 10 d, 0 to 100 scale where 0 is no effect and 100 is complete control
[22] = 500 g ai/ha, preemergence, 0 to 100 scale, 0 = no effect, 100 = complete control
[23] = 125 g ai/ha, visual rating after approx. 10 d, 0 to 100 scale where 0 is no effect and 100 is complete control
[24] = 500 g ai/ha, 0 to 100 scale, 0 = no effect, 100 = complete control
[25] = 125 g ai/ha, visual injury after approximately 10 d
[26] = 500 g ai/ha, visual injury, approx. 10 d
[27] = 125 g ai/ha, visual rating after approx. 10 d
[28] = 125 g ai/ha, preemergence, visual rating after approx. 10 d, 0 to 100 scale where 0 is no effect and 100 is complete control

Compound | Plant response rating, Kochia [1, 22] | Plant response rating, Barnyardgrass [2, 22] | Plant response rating, Foxtail, Giant [3, 22] | Plant response rating, Pigweed [4, 23] | Plant response rating, Pigweed [4, 24] | Plant response rating, Ragweed [5, 23] | Plant response rating, Ragweed [5, 24] | Plant response rating, Ryegrass, Italian [6, 23] | Plant response rating, Ryegrass, Italian [6, 24] | Plant response rating, Galium [7, 25] | Plant response rating, Galium [7, 26] | Plant response rating, Kochia [8, 25] | Plant response rating, Kochia [8, 26] | Plant response rating, Barnyardgrass [9, 26] | Plant response rating, Blackgrass [10, 26] | Plant response rating, Corn [11, 25] | Plant response rating, Corn [11, 26] | Plant response rating, Foxtail, Giant [12, 25] | Plant response rating, Foxtail, Giant [12, 26] | Plant response rating, Pigweed [13, 25] | also measured
O=C1NCC(c2cccc(Br)c2)C1C(=O)Nc1cccc(F)c1F (racemic) [Compound 688] | 50 | 90 | 90 | 30 | 40 | 20 | 40 | 0 | 20 | 40 | 50 | 40 | 60 | 90 | 60 | 40 | 70 | 90 | 90 | 30 | Plant response rating, Kochia [1, 21]: 30; Plant response rating, Barnyardgrass [2, 21]: 90; Plant response rating, Foxtail, Giant [3, 21]: 90; Plant response rating, Barnyardgrass [9, 27]: 90; Plant response rating, Blackgrass [10, 27]: 50; Plant response rating, Pigweed [13, 26]: 50; Plant response rating, Ragweed [14, 25]: 30; Plant response rating, Ragweed [14, 26]: 50; Plant response rating, Ryegrass, Italian [15, 25]: 40; Plant response rating, Ryegrass, Italian [15, 26]: 60; Plant response rating, Wheat [16, 25]: 20; Plant response rating, Wheat [16, 26]: 70; Plant response rating, Barnyardgrass ([17]; 250 g ai/ha): 35; Plant response rating, Ducksalad ([18]; 250 g ai/ha): 100; Plant response rating, Rice ([19]; 250 g ai/ha): 0; Plant response rating, Sedge, Umbrella ([20]; 250 g ai/ha): 0
O=C1NCC(c2cccc(OC(F)(F)C(F)F)c2)C1C(=O)Nc1ccccc1Cl (racemic) [Compound 699] | 70 | 90 | 90 | 30 | 50 | 0 | 70 | 20 | 40 | 50 | 60 | 30 | 50 | 80 | 60 | 30 | 60 | 50 | 80 | 20 | Plant response rating, Kochia [1, 28]: 0; Plant response rating, Barnyardgrass [2, 28]: 90; Plant response rating, Foxtail, Giant [3, 28]: 90; Plant response rating, Barnyardgrass [9, 25]: 50; Plant response rating, Blackgrass [10, 25]: 30; Plant response rating, Pigweed [13, 26]: 20; Plant response rating, Ragweed [14, 25]: 0; Plant response rating, Ragweed [14, 26]: 30; Plant response rating, Ryegrass, Italian [15, 25]: 0; Plant response rating, Ryegrass, Italian [15, 26]: 30; Plant response rating, Wheat [16, 25]: 0; Plant response rating, Wheat [16, 26]: 20; Plant response rating, Barnyardgrass ([17]; 500 g ai/ha): 60; Plant response rating, Ducksalad ([18]; 500 g ai/ha): 90; Plant response rating, Rice ([19]; 500 g ai/ha): 0; Plant response rating, Sedge, Umbrella ([20]; 500 g ai/ha): 0
O=C1NCC(c2ccc(I)cc2)C1C(=O)Nc1ccc(F)cc1F (racemic) [Compound 701] | 0 | 90 | 90 | 0 | 0 | 0 | 0 | 0 | 0 | 0 | 0 | 0 | 0 | 70 | 0 | 0 | 0 | 60 | 70 | 0 | Plant response rating, Kochia [1, 28]: 0; Plant response rating, Barnyardgrass [2, 28]: 60; Plant response rating, Foxtail, Giant [3, 28]: 90; Plant response rating, Barnyardgrass [9, 25]: 60; Plant response rating, Blackgrass [10, 25]: 0; Plant response rating, Pigweed [13, 26]: 0; Plant response rating, Ragweed [14, 25]: 0; Plant response rating, Ragweed [14, 26]: 0; Plant response rating, Ryegrass, Italian [15, 25]: 0; Plant response rating, Ryegrass, Italian [15, 26]: 0; Plant response rating, Wheat [16, 25]: 0; Plant response rating, Wheat [16, 26]: 0; Plant response rating, Barnyardgrass ([17]; 500 g ai/ha): 65; Plant response rating, Ducksalad ([18]; 500 g ai/ha): 100; Plant response rating, Rice ([19]; 500 g ai/ha): 0; Plant response rating, Sedge, Umbrella ([20]; 500 g ai/ha): 0
